US5202315A, “Cephalosporin compounds” (Lucky, Ltd., priority 1989, dated 1993)
Converted amounts (≈) assume the structure as drawn. Read-outs that look alike come from different tables or passages of the source.

Key:
[1] = tested on: Acinetobacter calcoaceticus ATCC 15473; experiment: Antibacterial activity, MIC; type: cell-based; conditions: ATCC15473, ATCC 15473, agar two-fold dilution, 37° C., 20 hours, read-out: MIC
Experimental: (§1) Also, the in vitro antibacterial activity was determined by the by a two-fold dilution method as described below:
(§2) That is, the two-fold serial dilutions of the compound were made dispersed in Muller-Hinton agar medium. 2 μl of standard test strain which had the 10^7 CFU per ml was inoculated on the medium, and was incubated at 37° C. for 20 hours.

[2] = tested on: Bacillus cereus ATCC 11778; experiment: Antibacterial activity, MIC; type: cell-based; conditions: ATCC11778, ATCC 11778, agar two-fold dilution, 37° C., 20 hours, read-out: MIC
Experimental: as §1, §2

[3] = tested on: Bacillus megaterium ATCC 9885; experiment: Antibacterial activity, MIC; type: cell-based; conditions: Priestia megaterium, ATCC9885; ATCC 9885; agar two-fold dilution, 37° C., 20 hours; read-out: MIC
Experimental: as §1, §2

[4] = tested on: Citrobacter freundii ATCC 8090; experiment: Antibacterial activity, MIC; type: cell-based; conditions: ATCC8090, ATCC 8090, agar two-fold dilution, 37° C., 20 hours, read-out: MIC
Experimental: as §1, §2

[5] = tested on: Enterobacter aerogenes ATCC 29751; experiment: Antibacterial activity, MIC; type: cell-based; conditions: Klebsiella aerogenes, ATCC29751; ATCC 29751; agar two-fold dilution, 37° C., 20 hours; read-out: MIC
Experimental: as §1, §2

[6] = tested on: Enterobacter cloacae ATCC 27508; experiment: Antibacterial activity, MIC; type: cell-based; conditions: ATCC27508, ATCC 27508, agar two-fold dilution, 37° C., 20 hours, read-out: MIC
Experimental: as §1, §2

[7] = tested on: Escherichia coli ATCC 10536; experiment: Antibacterial activity, MIC; type: cell-based; conditions: ATCC10536, agar two-fold dilution, 37° C., 20 hours
Experimental: as §1, §2

[8] = tested on: Micrococcus luteus ATCC 9341; experiment: Antibacterial activity, MIC; type: cell-based; conditions: ATCC9341, ATCC 9341, agar two-fold dilution, 37° C., 20 hours, read-out: MIC
Experimental: as §1, §2

[9] = tested on: Morganella morganii ATCC 8076h; experiment: Antibacterial activity, MIC; type: cell-based; conditions: ATCC8076H, agar two-fold dilution, 37° C., 20 hours
Experimental: as §1, §2

[10] = tested on: Proteus mirabilis ATCC 25933; experiment: Antibacterial activity, MIC; type: cell-based; conditions: ATCC25933, ATCC 25933, agar two-fold dilution, 37° C., 20 hours, read-out: MIC
Experimental: as §1, §2

[11] = tested on: Proteus vulgaris ATCC 6059; experiment: Antibacterial activity, MIC; type: cell-based; conditions: ATCC6059, ATCC 6059, agar two-fold dilution, 37° C., 20 hours, read-out: MIC
Experimental: as §1, §2

[12] = tested on: Providencia rettgeri ATCC 9250; experiment: Antibacterial activity, MIC; type: cell-based; conditions: ATCC9250, agar two-fold dilution, 37° C., 20 hours
Experimental: as §1, §2

[13] = tested on: Pseudomonas aeruginosa ATCC 10145; experiment: Antibacterial activity, MIC; type: cell-based; conditions: ATCC10145, ATCC 10145, agar two-fold dilution, 37° C., 20 hours, read-out: MIC
Experimental: as §1, §2

[14] = tested on: Pseudomonas aeruginosa ATCC 25619; experiment: Antibacterial activity, MIC; type: cell-based; conditions: ATCC25619, ATCC 25619, agar two-fold dilution, 37° C., 20 hours, read-out: MIC
Experimental: as §1, §2

[15] = tested on: Pseudomonas aeruginosa ATCC 27853; experiment: Antibacterial activity, MIC; type: cell-based; conditions: ATCC27853, ATCC 27853, agar two-fold dilution, 37° C., 20 hours, read-out: MIC
Experimental: as §1, §2

[16] = tested on: Salmonella typhimurium ATCC 14028; experiment: Antibacterial activity, MIC; type: cell-based; conditions: Salmonella enterica; ATCC 14028; agar two-fold dilution, 37° C., 20 hours; read-out: MIC
Experimental: as §1, §2

[17] = tested on: Serratia marcescens ATCC 27117; experiment: Antibacterial activity, MIC; type: cell-based; conditions: ATCC27117, ATCC 27117, agar two-fold dilution, 37° C., 20 hours, read-out: MIC
Experimental: as §1, §2

[18] = tested on: Shigella flexneri ATCC 11836; experiment: Antibacterial activity, MIC; type: cell-based; conditions: ATCC11836, agar two-fold dilution, 37° C., 20 hours
Experimental: as §1, §2

[19] = tested on: Shigella sonnei ATCC 11060; experiment: Antibacterial activity, MIC; type: cell-based; conditions: ATCC11060, ATCC 11060, agar two-fold dilution, 37° C., 20 hours, read-out: MIC
Experimental: as §1, §2

[20] = tested on: Staphylococcus aureus ATCC 10537; experiment: Antibacterial activity, MIC; type: cell-based; conditions: ATCC10537, ATCC 10537, agar two-fold dilution, 37° C., 20 hours, read-out: MIC
Experimental: as §1, §2

[21] = tested on: Staphylococcus aureus ATCC 6538p; experiment: Antibacterial activity, MIC; type: cell-based; conditions: ATCC6538P, ATCC 6538p, agar two-fold dilution, 37° C., 20 hours, read-out: MIC
Experimental: as §1, §2

[22] = tested on: Staphylococcus epidermidis ATCC 12228; experiment: Antibacterial activity, MIC; type: cell-based; conditions: ATCC12228, ATCC 12228, agar two-fold dilution, 37° C., 20 hours, read-out: MIC
Experimental: as §1, §2

[23] = tested on: Streptococcus faecalis ATCC 29212; experiment: Antibacterial activity, MIC; type: cell-based; conditions: Enterococcus faecalis, ATCC29212; ATCC 29212; agar two-fold dilution, 37° C., 20 hours; read-out: MIC
Experimental: as §1, §2

[24] = tested on: Escherichia coli ATCC 25922; experiment: Antibacterial activity, MIC; type: cell-based; conditions: ATCC25922, agar two-fold dilution, 37° C., 20 hours
Experimental: as §1, §2

[25] = tested on: Klebsiella pneumoniae ATCC 10031; experiment: Antibacterial activity, MIC; type: cell-based; conditions: ATCC10031, ATCC 10031, agar two-fold dilution, 37° C., 20 hours, read-out: MIC
Experimental: as §1, §2

[26] = In-vivo absorbency (plasma concentrations & pharmacokinetic parameters); parameters: species or system SD rat (male); conditions: plasma, SD male rat, iv 20 mg/kg; for concentration at 1 h: 60 min; for concentration at 1 h / concentration at 2 h: read-out: Plasma Conc.; for concentration at 2 h: 120 min; for AUC / half-life: two compartment model; for half-life: rat, iv, 20 mg/kg
From the text: The blood samples from the femoral vein of the rats were taken every hour after administration, and analyzed by bio-assay(agar well method).
Tested animal: SD male Rat (220~340 g)

[27] = as above; parameters: species or system SD rat (male); conditions: plasma, SD male rat, iv 20 mg/kg, read-out: Plasma Conc.

| SMILES | MIC [1] [µg/mL] | MIC [2] [µg/mL] | MIC [4] [µg/mL] | MIC [5] [µg/mL] | MIC [6] [µg/mL] | MIC [7] [µg/mL] | MIC [8] [µg/mL] | MIC [9] [µg/mL] | MIC [10] [µg/mL] | MIC [11] [µg/mL] | MIC [12] [µg/mL] | MIC [13] [µg/mL] | MIC [14] [µg/mL] | MIC [15] [µg/mL] | MIC [16] [µg/mL] | MIC [17] [µg/mL] | MIC [18] [µg/mL] | MIC [20] [µg/mL] | MIC [21] [µg/mL] | MIC [22] [µg/mL] | further results |
| --- | --- | --- | --- | --- | --- | --- | --- | --- | --- | --- | --- | --- | --- | --- | --- | --- | --- | --- | --- | --- | --- |
| C=CC[n+]1c(N)cc(N)nc1SCC1=C(C(=O)[O-])N2C(=O)C(NC(=O)/C(=N\OC(C)C(=O)O)c3csc(N)n3)C2SC1 (stereo not drawn) [Compound I-6] | 4 (≈ 6.29 µM) | 128 (≈ 201 µM) | 0.063 (≈ 0.0991 µM) | 1 (≈ 1.57 µM) | 0.016 (≈ 0.0252 µM) | 0.063 (≈ 0.0991 µM) | 0.25 (≈ 0.393 µM) | ≤ 0.008 | 0.031 (≈ 0.0488 µM) | 0.031 (≈ 0.0488 µM) | ≤ 0.008 | 4 (≈ 6.29 µM) | 2 (≈ 3.15 µM) | 2 (≈ 3.15 µM) | 0.25 (≈ 0.393 µM) | 0.13 (≈ 0.204 µM) | 0.031 (≈ 0.0488 µM) | 2 (≈ 3.15 µM) | 4 (≈ 6.29 µM) | 2 (≈ 3.15 µM) | MIC [3]: 1 µg/mL (≈ 1.57 µM); MIC [19]: 0.063 µg/mL (≈ 0.0991 µM); MIC [23]: > 128 µg/mL |
| CC(C)(O/N=C(\C(=O)NC1C(=O)N2C(C(=O)[O-])=C(CSc3nc(N)cc(N)[n+]3N)CSC12)c1nsc(N)n1)C(=O)O (stereo not drawn) [Compound I-13] | 4 (≈ 6.39 µM) | > 128 | 0.13 (≈ 0.208 µM) | 1 (≈ 1.6 µM) | 0.031 (≈ 0.0495 µM) | 0.13 (≈ 0.208 µM) | 1 (≈ 1.6 µM) | 0.016 (≈ 0.0256 µM) | 0.13 (≈ 0.208 µM) | 0.13 (≈ 0.208 µM) | ≤ 0.008 | 2 (≈ 3.2 µM) | 2 (≈ 3.2 µM) | 1 (≈ 1.6 µM) | 0.5 (≈ 0.799 µM) | 0.25 (≈ 0.4 µM) | 0.063 (≈ 0.101 µM) | 8 (≈ 12.8 µM) | 16 (≈ 25.6 µM) | 4 (≈ 6.39 µM) | MIC [3]: 1 µg/mL (≈ 1.6 µM); MIC [24]: 0.13 µg/mL (≈ 0.208 µM); MIC [25]: 0.063 µg/mL (≈ 0.101 µM); MIC [23]: > 128 µg/mL |
| CCc1c(N)nc(SCC2=C(C(=O)[O-])N3C(=O)C(NC(=O)/C(=N\OC(C)(C)C(=O)O)c4csc(N)n4)C3SC2)[n+](C)c1N (stereo not drawn) [Compound I-31] | 8 (≈ 12.3 µM) | 128 (≈ 196 µM) | 0.13 (≈ 0.199 µM) | 2 (≈ 3.07 µM) | 0.016 (≈ 0.0245 µM) | 0.063 (≈ 0.0967 µM) | 0.5 (≈ 0.767 µM) | ≤ 0.008 | 0.031 (≈ 0.0476 µM) | 0.063 (≈ 0.0967 µM) | ≤ 0.008 | 4 (≈ 6.14 µM) | 1 (≈ 1.53 µM) | 2 (≈ 3.07 µM) | 0.25 (≈ 0.384 µM) | 0.25 (≈ 0.384 µM) | 0.063 (≈ 0.0967 µM) | 4 (≈ 6.14 µM) | 4 (≈ 6.14 µM) | 2 (≈ 3.07 µM) | MIC [24]: 0.13 µg/mL (≈ 0.199 µM); MIC [25]: 0.063 µg/mL (≈ 0.0967 µM); MIC [19]: 0.063 µg/mL (≈ 0.0967 µM); MIC [23]: > 128 µg/mL; concentration at 1 h [26]: 7700 ng/mL; concentration at 2 h [26]: 1600 ng/mL; AUC [26]: 30500 ng·h/mL; half-life ([26]; read-out: T1/2 (α)): 6 min; half-life ([26]; read-out: T1/2 (β)): 27 min; concentration at 0.5 min [27]: 208000 ng/mL; concentration at 2.5 min [27]: 85000 ng/mL; concentration at 5 min [27]: 62000 ng/mL; concentration at 10 min [27]: 45000 ng/mL; concentration at 20 min [27]: 30000 ng/mL; concentration at 40 min [27]: 14000 ng/mL |
| CC[n+]1c(SCC2=C(C(=O)[O-])N3C(=O)C(NC(=O)/C(=N\OC(C)(C)C(=O)O)c4csc(N)n4)C3SC2)nc(N)c(C)c1N (stereo not drawn) [Compound I-32] | 8 (≈ 12.3 µM) | 64 (≈ 98.2 µM) | 0.13 (≈ 0.199 µM) | 2 (≈ 3.07 µM) | 0.016 (≈ 0.0245 µM) | 0.13 (≈ 0.199 µM) | 0.25 (≈ 0.384 µM) | ≤ 0.008 | 0.031 (≈ 0.0476 µM) | 0.063 (≈ 0.0967 µM) | ≤ 0.008 | 4 (≈ 6.14 µM) | 2 (≈ 3.07 µM) | 2 (≈ 3.07 µM) | 0.25 (≈ 0.384 µM) | 0.13 (≈ 0.199 µM) | 0.031 (≈ 0.0476 µM) | 2 (≈ 3.07 µM) | 4 (≈ 6.14 µM) | 1 (≈ 1.53 µM) | MIC [24]: 0.13 µg/mL (≈ 0.199 µM); MIC [25]: 0.063 µg/mL (≈ 0.0967 µM); MIC [19]: 0.13 µg/mL (≈ 0.199 µM); MIC [23]: > 128 µg/mL; concentration at 1 h [26]: 7500 ng/mL; concentration at 2 h [26]: 1800 ng/mL; AUC [26]: 30500 ng·h/mL; half-life ([26]; read-out: T1/2 (α)): 3 min; half-life ([26]; read-out: T1/2 (β)): 29 min; concentration at 0.5 min [27]: 162000 ng/mL; concentration at 2.5 min [27]: 75000 ng/mL; concentration at 5 min [27]: 53000 ng/mL; concentration at 10 min [27]: 35000 ng/mL; concentration at 20 min [27]: 21000 ng/mL; concentration at 40 min [27]: 13000 ng/mL |
